Experimental data taken from ChEMBL document CHEMBL1154899, “Synthesis and biological evaluation of caffeic acid 3,4-dihydroxyphenethyl ester” (J Nat Prod, 2010).

Key:
Assay type in all cases: functional
HT-29 = test: Antiproliferative activity against human HT-29 cells assessed as cell growth at 0.5 uM by SRB assay; details: read-out: Activity
UO-31 [1] = test: Antiproliferative activity against human UO31 cells assessed as cell growth at 50 uM by SRB assay; details: read-out: Activity
HL-60(TB) [2] = test: Antiproliferative activity against human HL-60(TB) cells assessed as cell growth at 5 uM by SRB assay; details: read-out: Activity
OVCAR-5 [3] = test: Antiproliferative activity against human OVCAR5 cells at 5 mM by SRB assay
MDA-MB-231 = test: Antiproliferative activity against human MDA-MB-231 cells assessed as cell growth at 500 uM by SRB assay; details: read-out: Activity
NCI-H322M = test: Antiproliferative activity against human NCI-H322M cells by SRB assay
UO-31 [4] = test: Antiproliferative activity against human UO31 cells assessed as cell growth at 5 uM by SRB assay; details: read-out: Activity
EKVX = test: Antiproliferative activity against human EKVX cells by SRB assay
HOP-92 = test: Antiproliferative activity against human HOP92 cells assessed as cell growth at 50 uM by SRB assay; details: read-out: Activity
A549 = test: Antiproliferative activity against human A549 cells assessed as cell growth at 0.5 uM by SRB assay; details: read-out: Activity
HL-60(TB) [5] = test: Antiproliferative activity against human HL-60(TB) cells by SRB assay
TK-10 = test: Antiproliferative activity against human TK10 cells assessed as cell growth at 0.5 uM by SRB assay; details: read-out: Activity
K562 [6] = test: Antiproliferative activity against human K562 cells assessed as cell growth at 0.5 uM by SRB assay; details: read-out: Activity
NCI-H226 = test: Antiproliferative activity against human NCI-H226 cells assessed as cell growth at 50 uM by SRB assay; details: read-out: Activity
HL-60(TB) [7] = test: Antiproliferative activity against human HL-60(TB) cells assessed as cell growth at 0.5 uM by SRB assay; details: read-out: Activity
SW-620 [8] = test: Antiproliferative activity against human SW620 cells by SRB assay
SF-268 = test: Antiproliferative activity against human SF268 cells by SRB assay
NCI-H522 [9] = test: Antiproliferative activity against human NCI-H522 cells assessed as cell growth at 5 uM by SRB assay; details: read-out: Activity
DU-145 = test: Antiproliferative activity against human DU145 cells assessed as cell growth at 5 uM by SRB assay; details: read-out: Activity
COLO 205 [10] = test: Antiproliferative activity against human COLO205 cells assessed as cell growth at 0.5 uM by SRB assay; details: read-out: Activity
MOLT-4 = test: Antiproliferative activity against human MOLT4 cells assessed as cell growth at 500 uM by SRB assay; details: read-out: Activity
SNB-19 [11] = test: Antiproliferative activity against human SNB19 cells by SRB assay
SK-MEL-2 [12] = test: Antiproliferative activity against human SK-MEL-2 cells assessed as cell growth at 0.5 uM by SRB assay; details: read-out: Activity
NCI-H522 [13] = test: Antiproliferative activity against human NCI-H522 cells assessed as cell growth at 5 mM by SRB assay; details: read-out: Activity
[14] = Antiproliferative activity against human Hs 578T cells assessed as cell growth at […] by SRB assay; details: read-out: Activity
COLO 205 [15] = test: Antiproliferative activity against human COLO205 cells assessed as cell growth at 5 uM by SRB assay; details: read-out: Activity
IGROV-1 = test: Antiproliferative activity against human IGROV1 cells assessed as cell growth at 50 uM by SRB assay; details: read-out: Activity
HCC 2998 = test: Antiproliferative activity against human HCC2998 cells assessed as cell growth at 5 uM by SRB assay; details: read-out: Activity
OVCAR-3 = test: Antiproliferative activity against human OVCAR-3 cells by SRB assay
K562 [16] = test: Antiproliferative activity against human K562 cells by SRB assay
CCRF-CEM = test: Antiproliferative activity against human CCRF-CEM cells assessed as cell growth at 500 uM by SRB assay; details: read-out: Activity
ACHN = test: Antiproliferative activity against human ACHN cells by SRB assay
SNB-19 [17] = test: Antiproliferative activity against human SNB19 cells assessed as cell growth at 50 uM by SRB assay; details: read-out: Activity
OVCAR-8 = test: Antiproliferative activity against human OVCAR8 cells assessed as cell growth at 50 uM by SRB assay; details: read-out: Activity
SNB-19 [18] = test: Antiproliferative activity against human SNB19 cells assessed as cell growth at 500 uM by SRB assay; details: read-out: Activity
SK-MEL-2 [19] = test: Antiproliferative activity against human SK-MEL-2 cells assessed as cell growth at 500 uM by SRB assay; details: read-out: Activity
OVCAR-5 [20] = test: Antiproliferative activity against human OVCAR5 cells at 5 uM by SRB assay
SW-620 [21] = test: Antiproliferative activity against human SW620 cells assessed as cell growth at 0.5 uM by SRB assay; details: read-out: Activity
MDA-MB-435 = test: Antiproliferative activity against human MDA-MB-435 cells assessed as cell growth at 5 uM by SRB assay; details: read-out: Activity
SK-MEL-5 = test: Antiproliferative activity against human SK-MEL-5 cells assessed as cell growth at 500 uM by SRB assay; details: read-out: Activity
HCT-116 = test: Antiproliferative activity against human HCT116 cells assessed as cell growth at 5 uM by SRB assay; details: read-out: Activity
[22] = read-out: LC50 (the source's name)
[23] = read-out: pLC50 (the source's name) (converted)

Work on `O=C(/C=C/c1ccc(O)c(O)c1)OCCc1ccc(O)c(O)c1` yielded a growth at 0.5 µM (HT-29) of 104%, a growth at 50 µM (UO-31 [1]) of 82% and a growth at 5 µM (HL-60(TB) [2]) of 85%. The Activity (OVCAR-5 [3]) was 51%, the growth at 500 µM (MDA-MB-231) was 85% and the GI50 (NCI-H322M; read-out: GI50) was 28.1 µM. It also gave a CC50 (NCI-H322M; [22]) greater than 50 µM, a TGI (NCI-H322M; read-out: TGI) greater than 50 µM and a GI50 (NCI-H322M; read-out: pGI50 (converted)) of 28.2 µM. For the same compound, the CC50 (NCI-H322M; [23]) was greater than 50.1 µM, the TGI (NCI-H322M; read-out: pTGI) was greater than 50.1 µM and the growth at 5 µM (UO-31 [4]) was 93%. It also gave a GI50 (EKVX; read-out: GI50) of 14.9 µM, a CC50 (EKVX; [22]) greater than 50 µM and a TGI (EKVX; read-out: TGI) greater than 50 µM. It also gave a GI50 (EKVX; read-out: pGI50 (converted)) of 14.8 µM, a CC50 (EKVX; [23]) greater than 50.1 µM and a TGI (EKVX; read-out: pTGI) greater than 50.1 µM. The growth at 50 µM (HOP-92) was 55%, the growth at 0.5 µM (A549) was 105% and the GI50 (HL-60(TB) [5]; read-out: GI50) was 2.54 µM. The CC50 (HL-60(TB) [5]; [22]) was greater than 50 µM, the TGI (HL-60(TB) [5]; read-out: TGI) was 17.7 µM and the GI50 (HL-60(TB) [5]; read-out: pGI50 (converted)) was 2.63 µM. It also gave a CC50 (HL-60(TB) [5]; [23]) greater than 50.1 µM, a TGI (HL-60(TB) [5]; read-out: pTGI (converted)) of 17.8 µM and a growth at 0.5 µM (TK-10) of 92%. The growth at 0.5 µM (K562 [6]) was 107%, the growth at 50 µM (NCI-H226) was 90% and the growth at 0.5 µM (HL-60(TB) [7]) was 94%. The GI50 (SW-620 [8]; read-out: GI50) was 10.2 µM, the CC50 (SW-620 [8]; [22]) was greater than 50 µM and the TGI (SW-620 [8]; read-out: TGI) was greater than 50 µM. It also gave a GI50 (SW-620 [8]; read-out: pGI50 (converted)) of 10.2 µM, a CC50 (SW-620 [8]; [23]) greater than 50.1 µM and a TGI (SW-620 [8]; read-out: pTGI) greater than 50.1 µM. For the same compound, the GI50 (SF-268; read-out: GI50) was 6.93 µM, the CC50 (SF-268; [22]) was greater than 50 µM and the TGI (SF-268; read-out: TGI) was greater than 50 µM. The GI50 (SF-268; read-out: pGI50 (converted)) was 6.61 µM, the CC50 (SF-268; [23]) was greater than 50.1 µM and the TGI (SF-268; read-out: pTGI) was greater than 50.1 µM. It also gave a growth at 5 µM (NCI-H522 [9]) of 89%, a growth at 5 µM (DU-145) of 101% and a growth at 0.5 µM (COLO 205 [10]) of 99%. The growth at 500 µM (MOLT-4) was 39%, the GI50 (SNB-19 [11]; read-out: GI50) was 15.5 µM and the CC50 (SNB-19 [11]; [22]) was greater than 50 µM. The TGI (SNB-19 [11]; read-out: TGI) was greater than 50 µM, the GI50 (SNB-19 [11]; read-out: pGI50 (converted)) was 15.5 µM and the CC50 (SNB-19 [11]; [23]) was greater than 50.1 µM. The TGI (SNB-19 [11]; read-out: pTGI) was greater than 50.1 µM, the growth at 0.5 µM (SK-MEL-2 [12]) was 86% and the growth at 5000 µM (NCI-H522 [13]) was -30%. It also gave a growth [14] of 9%, a growth at 5 µM (COLO 205 [15]) of 94% and a growth at 50 µM (IGROV-1) of 98%. For the same compound, the growth at 5 µM (HCC 2998) was 107%, the GI50 (OVCAR-3; read-out: GI50) was 5.17 µM and the CC50 (OVCAR-3; [22]) was greater than 50 µM. It also gave a TGI (OVCAR-3; read-out: TGI) greater than 50 µM, a GI50 (OVCAR-3; read-out: pGI50 (converted)) of 5.13 µM and a CC50 (OVCAR-3; [23]) greater than 50.1 µM. For the same compound, the TGI (OVCAR-3; read-out: pTGI) was greater than 50.1 µM, the GI50 (K562 [16]; read-out: GI50) was 1.56 µM and the CC50 (K562 [16]; [22]) was greater than 50 µM. For the same compound, the TGI (K562 [16]; read-out: TGI) was 19.9 µM, the GI50 (K562 [16]; read-out: pGI50 (converted)) was 1.55 µM and the CC50 (K562 [16]; [23]) was greater than 50.1 µM. The TGI (K562 [16]; read-out: pTGI (converted)) was 20 µM, the growth at 500 µM (CCRF-CEM) was 1% and the GI50 (ACHN; read-out: GI50) was 2.94 µM. For the same compound, the CC50 (ACHN; [22]) was greater than 50 µM, the TGI (ACHN; read-out: TGI) was 38.7 µM and the GI50 (ACHN; read-out: pGI50 (converted)) was 2.95 µM. For the same compound, the CC50 (ACHN; [23]) was greater than 50.1 µM, the TGI (ACHN; read-out: pTGI (converted)) was 38.9 µM and the growth at 50 µM (SNB-19 [17]) was 94%. The growth at 50 µM (OVCAR-8) was 78%, the growth at 500 µM (SNB-19 [18]) was 79% and the growth at 500 µM (SK-MEL-2 [19]) was 38%. The Activity (OVCAR-5 [20]) was 89%, the growth at 0.5 µM (SW-620 [21]) was 98% and the growth at 5 µM (MDA-MB-435) was 92%. For the same compound, the growth at 500 µM (SK-MEL-5) was 64% and the growth at 5 µM (HCT-116) was 97%.
